# Experimental data as given in ChEMBL document CHEMBL1201862, “PubChem BioAssay data set” (2004).
# The source made the active and inactive calls.
# Legend:
# [1] = inhibitors of firefly luciferase expression or activity, dose response, H4 neuroglioma cells, luminescence (AID 1990); type: functional, cell-based
# [2] = inhibitors of SNCA 5'UTR-driven reporter translation, confirmation, H4 neuroglioma cells, luminescence (AID 1988); type: functional, cell-based
# [3] = Luminescence Cell-Based Dose Response HTS to Identify Inhibitors of 5'UTR Stem-Loop Driven Prion Protein mRNA Translation in H4 Neuroglioblastoma Cells. [Related pubchem assays: 1827 (Project Summary), 1813 (Primary HTS)]; type: functional
# [4] = HeLa cell cytotoxicity, dose response, cytotoxicity control for MgcRacGAP inhibitor project (AID 624300); type: functional
# [5] = biological target: T1, Rac GTPase-activating protein 1 (Homo sapiens, UniProt Q9H0H5); experiment: MgcRacGAP GTPase-activating activity inhibitors, confirmation, biochemical, ADP Hunter fluorescence, primary and confirmatory (AID 624330); type: functional
# T1 sequence (Q9H0H5 whole entry): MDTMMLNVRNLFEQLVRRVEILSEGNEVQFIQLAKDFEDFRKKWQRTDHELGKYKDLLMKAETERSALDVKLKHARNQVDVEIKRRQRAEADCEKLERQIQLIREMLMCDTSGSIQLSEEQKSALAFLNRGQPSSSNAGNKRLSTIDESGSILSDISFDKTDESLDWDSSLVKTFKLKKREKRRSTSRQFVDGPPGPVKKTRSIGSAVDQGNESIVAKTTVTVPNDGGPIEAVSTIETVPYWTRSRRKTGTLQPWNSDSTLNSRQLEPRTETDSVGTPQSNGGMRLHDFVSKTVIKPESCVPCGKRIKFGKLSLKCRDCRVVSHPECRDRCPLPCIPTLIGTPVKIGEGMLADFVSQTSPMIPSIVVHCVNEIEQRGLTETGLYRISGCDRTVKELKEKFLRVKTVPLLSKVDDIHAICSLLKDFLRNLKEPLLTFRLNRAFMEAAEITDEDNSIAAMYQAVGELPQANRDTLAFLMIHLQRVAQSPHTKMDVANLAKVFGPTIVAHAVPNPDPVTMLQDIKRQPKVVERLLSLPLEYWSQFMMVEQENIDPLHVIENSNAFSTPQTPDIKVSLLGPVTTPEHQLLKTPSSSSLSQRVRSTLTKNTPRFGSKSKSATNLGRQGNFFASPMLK
# [6] = Counterscreen for inhibitors of Trypanosoma brucei methionyl tRNA synthetase (MetRS): Luminescence-based cell-based high throughput dose response assay to identify compounds that are cytotoxic to Jurkat human T lymphocyte cells.; type: functional
# Streptococcus = experiment: Group A Streptococcus viability loss, dose response, counter-screen for streptokinase expression inhibitor project, luminescence, BacTiterGlo (AID 1915); type: functional, organism-based;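 note: potency for reduction of bacterial viability or growth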
# [7] = biological target: T2, Methionyl-tRNA synthetase, putative (Trypanosoma brucei brucei, UniProt Q38C91); type: functional, Trypanosoma brucei brucei strain 927/4 GUTat10.1
# T2 sequence (Q38C91 whole entry): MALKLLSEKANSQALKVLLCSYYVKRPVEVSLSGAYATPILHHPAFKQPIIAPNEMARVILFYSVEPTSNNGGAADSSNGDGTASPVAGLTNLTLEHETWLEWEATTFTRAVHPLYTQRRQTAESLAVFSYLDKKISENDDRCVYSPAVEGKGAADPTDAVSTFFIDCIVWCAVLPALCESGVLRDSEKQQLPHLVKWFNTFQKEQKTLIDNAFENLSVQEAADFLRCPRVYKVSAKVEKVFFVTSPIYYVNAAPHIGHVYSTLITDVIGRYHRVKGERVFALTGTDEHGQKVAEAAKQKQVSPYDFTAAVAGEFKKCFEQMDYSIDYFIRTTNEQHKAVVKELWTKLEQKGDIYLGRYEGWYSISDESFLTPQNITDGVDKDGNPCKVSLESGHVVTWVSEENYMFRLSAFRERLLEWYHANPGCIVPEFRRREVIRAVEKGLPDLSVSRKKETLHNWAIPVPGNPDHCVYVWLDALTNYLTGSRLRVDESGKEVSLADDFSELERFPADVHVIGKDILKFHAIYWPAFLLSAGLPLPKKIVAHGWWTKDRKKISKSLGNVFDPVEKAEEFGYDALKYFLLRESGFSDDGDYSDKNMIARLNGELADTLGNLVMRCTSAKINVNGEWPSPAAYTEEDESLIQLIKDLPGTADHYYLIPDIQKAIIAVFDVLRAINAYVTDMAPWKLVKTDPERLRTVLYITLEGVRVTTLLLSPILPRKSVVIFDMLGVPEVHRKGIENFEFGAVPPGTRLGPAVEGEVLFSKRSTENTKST
# [8] = cytotoxicity toward NIH3T3 fibroblasts, dose response, counter-screen, cell-based, ATP luminescence, mouse fibroblasts (AID 2010); type: functional;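 note: cells exposed to compound for about 90 hours before reading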
# [9] = biological target: T2, Methionyl-tRNA synthetase, putative; type: functional, Trypanosoma brucei brucei strain 927/4 GUTat10.1; remark: listed apart in the source
# [10] = inhibitors of intracellular T. cruzi replication, confirmation, NIH3T3 host cells, beta-gal luminescence (AID 2044); type: functional, cell-based;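 note: intracellular parasites grown in NIH/3T3 mouse fibroblasts as host cells; luminescent beta-galactosidase reporter signal from transgenic T. cruzi replicating inside host cells; inhibitors lower the luminescence signal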
# Streptokinase A = biological target: T3, Streptokinase A (Streptococcus pyogenes serotype M1, UniProt P10520); experiment: S. pyogenes streptokinase expression inhibitors, potency, dose response, plasminogen activation absorbance, OD405 (AID 1914); type: functional, Streptococcus pyogenes M1 GAS;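 note: secreted streptokinase activity via plasminogen activation per viability signal from cell pellet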
# T3 sequence (P10520 whole entry): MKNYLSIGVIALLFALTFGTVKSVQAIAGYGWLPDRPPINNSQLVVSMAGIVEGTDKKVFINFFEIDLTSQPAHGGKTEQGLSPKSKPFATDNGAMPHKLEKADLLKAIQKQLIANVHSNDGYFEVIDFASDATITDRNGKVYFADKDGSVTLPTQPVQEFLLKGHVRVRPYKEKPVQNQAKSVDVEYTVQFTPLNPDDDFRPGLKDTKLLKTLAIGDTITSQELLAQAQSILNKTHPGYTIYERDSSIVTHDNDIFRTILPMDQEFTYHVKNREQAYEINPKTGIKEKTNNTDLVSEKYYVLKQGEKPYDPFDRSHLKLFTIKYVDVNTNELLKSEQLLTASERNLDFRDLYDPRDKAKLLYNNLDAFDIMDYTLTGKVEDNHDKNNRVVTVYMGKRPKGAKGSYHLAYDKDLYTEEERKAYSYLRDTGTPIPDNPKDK
# [11] = system: Streptococcus sp. 'group A'; experiment: growth inhibition of control SK(-) GAS strain, dose response, counter-screen for streptokinase expression inhibitor project, luminescence, kanamycin, BacTiterGlo, confirmation (AID 1900); type: functional, organism-based
# [12] = biological target: FAD-linked sulfhydryl oxidase ALR (Homo sapiens, UniProt P55789); experiment: inhibitors of human ALR sulfhydryl oxidase, dose response, biochemical, H2O2 detection, luminescence, cherry-pick (AID 493248)
# [13] = off-target signal loss in HeLa-CEM21 co-culture – HeLa F-luc CTL cells, cherry-picked, counter-screen for HIV-1 Env fusion inhibitor project, dose response (AID 652040); type: functional, cell-based;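 note: potency for signal decrease marking cytotoxic or nonspecific inhibition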
# [14] = inhibitors of HIV Env-driven cell fusion, dose response, cherry-pick (AID 652057); type: functional, cell-based
# [15] = inhibitors of clade B AD8 Env fusion, dose response, cell-based, cherry-pick (AID 652062); type: functional;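 note: luciferase signal from cell-cell fusion driven by HIV-1 clade B AD8 Env; potency is for inhibitors of fusion seen as a drop in luminescence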
# [16] = CEM21 lymphoblast cell cytotoxicity, dose response, cytotoxicity control for viral fusion inhibitor project, CellTiter-Glo luminescence, cherry-picked (AID 652042); type: functional, cell-based;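 note: potency for signal decrease meaning cytotoxicity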
# [17] = ZM109 Env clade C HIV-1 fusion inhibitors, dose response, HeLa effector, CEM target cells, luciferase, cherry-pick (AID 652058); type: functional, cell-based
# [18] = biological target: Photoreceptor-specific nuclear receptor (Homo sapiens, UniProt Q9Y5X4); type: functional, cell-based;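 note: CHO-S cells with Gal4-NCOR and VP16-NR2E3 two-hybrid luciferase reporter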
# [19] = biological target: T4, DNA repair protein RAD52 homolog (Homo sapiens, UniProt P43351); type: functional, biochemical
# T4 sequence (P43351 whole entry): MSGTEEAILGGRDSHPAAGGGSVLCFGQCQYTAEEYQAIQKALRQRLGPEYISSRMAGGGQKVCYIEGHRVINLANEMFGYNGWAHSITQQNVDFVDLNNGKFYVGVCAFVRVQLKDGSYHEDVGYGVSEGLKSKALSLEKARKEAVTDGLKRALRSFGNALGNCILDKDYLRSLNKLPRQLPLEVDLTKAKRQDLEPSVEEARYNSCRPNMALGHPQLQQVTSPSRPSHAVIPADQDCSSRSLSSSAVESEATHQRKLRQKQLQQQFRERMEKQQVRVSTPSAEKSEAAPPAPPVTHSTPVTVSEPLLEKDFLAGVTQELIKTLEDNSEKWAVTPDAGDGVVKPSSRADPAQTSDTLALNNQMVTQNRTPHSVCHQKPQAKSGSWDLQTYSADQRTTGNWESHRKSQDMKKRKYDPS
# [20] = biological target: T5, Heat shock factor protein 1 (Mus musculus, UniProt P38532); experiment: HSF1 potentiators in luciferase reporter cells, confirmation, cell-based, NIH3T3, luminescence, dose retest (AID 435004); type: functional;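 note: stress induced by proteasome inhibitor MG132 added 30 min after compound; luciferase reporter driven by HSF1 response element in NIH3T3 cells; actives raise luminescence as potentiators of the MG132 stress response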
# T5 sequence (P38532 whole entry): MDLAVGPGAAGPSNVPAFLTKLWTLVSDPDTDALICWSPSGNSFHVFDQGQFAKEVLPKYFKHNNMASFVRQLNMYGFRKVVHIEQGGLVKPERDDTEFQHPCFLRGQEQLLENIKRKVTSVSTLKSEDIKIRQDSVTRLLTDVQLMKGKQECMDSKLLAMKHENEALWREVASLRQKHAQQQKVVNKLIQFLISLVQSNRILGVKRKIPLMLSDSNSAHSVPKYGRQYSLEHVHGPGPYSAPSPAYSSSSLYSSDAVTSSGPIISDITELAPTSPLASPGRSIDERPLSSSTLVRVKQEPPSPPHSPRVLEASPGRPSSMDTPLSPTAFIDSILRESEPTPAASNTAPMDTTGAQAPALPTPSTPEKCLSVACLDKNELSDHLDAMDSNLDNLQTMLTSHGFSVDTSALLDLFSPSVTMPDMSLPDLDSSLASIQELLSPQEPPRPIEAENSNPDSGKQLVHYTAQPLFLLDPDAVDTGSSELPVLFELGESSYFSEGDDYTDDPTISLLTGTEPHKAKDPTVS
# Chain of Photoreceptor-specific nuclear receptor (Q9Y5X4 whole entry, the tested form may be a part): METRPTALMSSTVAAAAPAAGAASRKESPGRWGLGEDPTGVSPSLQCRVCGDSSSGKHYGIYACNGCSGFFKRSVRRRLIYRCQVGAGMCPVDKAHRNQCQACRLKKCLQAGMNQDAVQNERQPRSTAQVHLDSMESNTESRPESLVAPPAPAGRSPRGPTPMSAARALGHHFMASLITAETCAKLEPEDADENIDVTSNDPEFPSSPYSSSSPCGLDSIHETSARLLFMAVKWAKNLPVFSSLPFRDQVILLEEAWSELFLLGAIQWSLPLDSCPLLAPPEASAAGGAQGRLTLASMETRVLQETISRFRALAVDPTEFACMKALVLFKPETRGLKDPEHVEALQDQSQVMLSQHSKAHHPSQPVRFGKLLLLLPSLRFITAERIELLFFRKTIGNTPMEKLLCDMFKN
# Chain of FAD-linked sulfhydryl oxidase ALR (P55789 whole entry, the tested form may be a part): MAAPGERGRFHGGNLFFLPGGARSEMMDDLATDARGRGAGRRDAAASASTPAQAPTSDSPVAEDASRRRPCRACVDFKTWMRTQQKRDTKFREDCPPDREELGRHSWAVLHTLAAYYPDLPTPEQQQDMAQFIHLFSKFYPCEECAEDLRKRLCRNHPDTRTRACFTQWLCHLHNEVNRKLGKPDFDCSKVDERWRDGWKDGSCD
smiles,measurement,setting,value
CCOC(=O)c1sc2nc(CSc3ccccc3)nc(N3CCCN(C)CC3)c2c1C,EC50,[1],16.9 µM (active)
same,EC50,[2],8.64 µM (active)
same,EC50,[3],> 120 µM (not active)
same,CC50,[4],53.8 µM (active)
same,IC50,[5],149 µM (active)
C/C(=N\Nc1nc2ccccc2[nH]1)c1ccc2c(c1)OCO2,IC50,[6],48.4 µM (inactive)
same,EC50,Streptococcus,> 150 µM (not active)
same,IC50,[7],119 µM (inactive)
same,EC50,[8],> 60 µM (not active)
same,IC50,[9],28.2 µM (inactive)
same,EC50,[10],1.37 µM (active)
same,EC50,Streptokinase A,> 150 µM (not active)
same,EC50,[11],13.3 µM (active)
same,AC50,[12],0.116 µM (active)
CC(C)(C)n1nc(Cc2cccc3ccccc23)c2c(N)ncnc21,AC50,[13],31.1 µM (active)
same,AC50,[14],7.07 µM (active)
same,AC50,[15],34.5 µM (active)
same,AC50,[16],46.8 µM (active)
C[C@H]1CN([C@@H](C)CO)C(=O)Cc2cc(NC(=O)Nc3ccc4c(c3)OCO4)ccc2O[C@H]1CN(C)S(=O)(=O)c1ccccc1,AC50,[14],0.991 µM (active)
same,AC50,[17],0.739 µM (active)
same,AC50,[15],7.28 µM (active)
same,AC50,[16],37.3 µM (active)
COc1ccc(OC)c(NC(=O)CSc2nnnn2-c2ccc3c(c2)OCO3)c1,IC50,[18],0.24 µM (active)
CCOc1ccc(CONS(=O)(=O)c2ccc(NC(C)=O)cc2)cc1Cl,IC50,[6],83.3 µM (inactive)
same,IC50,[7],11.1 µM (inactive)
same,IC50,[9],17.7 µM (inactive)
CN1CC(c2ccccc2Cl)C2(COc3ccccc3C2=O)C12C(=O)Nc1ccccc12 (stereo not drawn),AC50,[13],6.24 µM (active)
same,AC50,[14],4.21 µM (active)
same,AC50,[17],3 µM (active)
same,AC50,[15],10.6 µM (active)
same,AC50,[16],65.3 µM (active)
Cc1sc2nc(CN3CCCCC3)nc(Nc3ccc4c(c3)OCCO4)c2c1C,AC50,[19],22.2 µM (active)
N#C/C(=C\c1ccc(Sc2nc3ccccc3[nH]2)o1)c1ccccc1,EC50,[20],23.6 µM (active)
same,IC50,[18],4.69 µM (active)
Cc1c(C(=O)Nc2ccc(Oc3ccccc3)cc2)sc2nc3n(c(=O)c12)CCC3,EC50,Streptococcus,> 150 µM (not active)
same,EC50,Streptokinase A,39 µM (active)
same,IC50,[18],2.78 µM (active)
same,EC50,[11],6.66 µM (active)
C[C@H]1CN([C@@H](C)CO)C(=O)Cc2cc(NC(=O)Nc3ccc4c(c3)OCO4)ccc2O[C@H]1CN(C)S(=O)(=O)c1cccs1,AC50,[14],1.93 µM (active)
same,AC50,[15],22.3 µM (active)
same,AC50,[16],49.9 µM (active)
CCC(Sc1nc(C)cc(=O)[nH]1)C(=O)Nc1sc2c(c1C#N)CCCC2 (stereo not drawn),IC50,[18],5.4 µM (active)
Cc1ccc(NC(=O)CN(C)C(=O)c2cc(S(=O)(=O)N(C)C)ccc2N2CCCC2)cc1,IC50,[6],83.3 µM (inactive)
same,IC50,[7],4.27 µM (active)
same,IC50,[9],10.4 µM (inactive)
CCn1c(SCC(=O)c2c[nH]c3ccccc23)nc2cc(S(=O)(=O)N3CCOCC3)ccc21,IC50,[6],83.3 µM (inactive)
same,IC50,[7],2.58 µM (active)
same,IC50,[9],12.2 µM (inactive)
O=C1CCCc2c1[nH]c1ccc(Cl)cc21,AC50,[13],< 0.26 µM (active)
same,AC50,[14],3.39 µM (active)
same,AC50,[17],15 µM (active)
same,EC50,[2],9.1 µM (active)
same,AC50,[15],6.38 µM (active)
